pEC50: −log10 of the molar value.
target: T1, S1P1 (EDG-1) receptor (Homo sapiens, UniProt P21453); test: S1P1 (EDG-1) GTP [γ-35S] binding assay, membranes from CHO cells; assay type: biochemical; details: membranes of CHO cells expressing human EDG-1
T1 construct: expressed in transfected cells
Procedure: A. In vitro: GPCR Activation Assay Measuring GTP [γ-^35S] Binding to Membranes Prepared from CHO Cells Expressing Human EDG Receptors
S1P1 (EDG-1) GTP [γ-^35S] binding assay: Homogenized membranes are prepared from CHO cell clones stably expressing a human EDG-1 N-terminal c-myc tag. Cells are grown in suspension in two 850 cm^2 roller bottles for three or fours days before harvesting. The cells are centrifuged down, washed once with cold PBS, and resuspended in ≦20 ml of Buffer A (20 mM HEPES, pH 7.4, […], EDTA-free complete protease inhibitor cocktail [1 tablet/25 ml]). The cell suspension is homogenized on ice, using a Polytron homogenizer at 30000 rpm at three intervals of 15 seconds each. The homogenate is first centrifuged at 2000 rpm on a tabletop low speed centrifuge for 10 minutes. The supernatant, after passing through a cell strainer, is then re-centrifuged at 50,000×g for 25 minutes at 4° C. The pellet is resuspended into buffer B (15% glycerol, 20 mM HEPES, pH 7.4, 0.1 mM EDTA, EDTA-free complete protease inhibitor cocktail [1 tablet/10 ml]). Protein concentration of the preparation is determined using the BCA Protein Assay kit (Pierce) using BSA as standard. The membranes are aliquoted and kept frozen at −80° C.
Solutions of test compounds ranging from 10 mM to 0.01 nM are prepared in DMSO. S1P is diluted in 4% BSA solution as positive controls. The desired amount of membrane preparation is diluted with ice-cold assay buffer (20 mM HEPES, pH 7.4, 100 mM NaCl, 10 mM MgCl2, 0.1% Fatty acid-free BSA, 5 μM GDP) and vortexed well. 2 μl or less of compound is distributed into each well of a round-bottom 96-well polystyrene assay plate, followed by addition of 100 µl of diluted membranes ([…]/well) and kept on ice until the addition of hot GTPγS. [^35S]-GTPγS is diluted 1:1000 (v/v) with cold assay buffer and 100 μl is added into each well. The reaction is carried out at room temperature for 90 minutes before the membranes are harvested onto Perkin-Elmer Unifilter® GF/B-96 filter plate using a Packard Filtermate Harvester. After several washes with wash buffer (20 mM HEPES, pH 7.4, 100 mM NaCl, 10 mM MgCl2), and a rinse with 95% ethanol, the filter is dried in a 37° C. oven for 30 minutes. MicroScint-20 is added and the plate sealed for scintillation counting on TopCount. EC50 values are obtained by fitting the GTP [γ-^35S] binding curves (raw data) with the dose response curve-fitting tool of GraphPad Prism. Six or twelve different concentrations are used to generate a concentration response curve (using three data points per concentration).

T1 sequence (P21453 whole entry): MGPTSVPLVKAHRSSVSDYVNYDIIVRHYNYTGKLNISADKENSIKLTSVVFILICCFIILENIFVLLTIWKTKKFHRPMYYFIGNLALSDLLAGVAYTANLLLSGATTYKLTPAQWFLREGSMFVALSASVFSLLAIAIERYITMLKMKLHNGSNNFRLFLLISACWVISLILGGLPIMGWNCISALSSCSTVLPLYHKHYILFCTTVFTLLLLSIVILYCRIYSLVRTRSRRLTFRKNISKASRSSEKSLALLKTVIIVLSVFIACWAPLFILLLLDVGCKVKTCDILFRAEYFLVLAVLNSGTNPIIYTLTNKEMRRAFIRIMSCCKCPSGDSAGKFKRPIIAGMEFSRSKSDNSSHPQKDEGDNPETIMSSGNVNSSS

pEC50, > 9.00:
CCc1ccccc1-c1ccc(-c2nc(-c3ccc(S(=O)(=O)NCC(=O)O)cc3)no2)cc1C(F)(F)F [Example 45]
O=C(O)CCNS(=O)(=O)c1ccc(-c2noc(-c3ccc(Oc4cccc(F)c4)c(C(F)(F)F)c3)n2)cc1 [Example 54]
NS(=O)(=O)c1ccc(-c2noc(-c3ccc(OC4CCCC4)c(C(F)(F)F)c3)n2)cc1 [Example 145]
CCc1cc(-c2noc(-c3ccc(-c4ccccc4F)c(C(F)(F)F)c3)n2)ccc1S(N)(=O)=O [Example 194, 2-Ethyl-4-[5-(2′-fluoro-2-trifluoromethyl-biphenyl-4-yl)-[1,2,4]oxadiazol-3-yl]-benzenesulfonamide]
CCc1cc(-c2noc(-c3ccc(C4CCCCC4)c(C(F)(F)F)c3)n2)ccc1S(N)(=O)=O [Example 196, 4-[5-(4-Cyclohexyl-3-trifluoromethyl-phenyl)-[1,2,4]oxadiazol-3-yl]-2-ethyl-benzenesulfonamide]

Reference: US20080306124A1, “Polycyclic Oxadiazoles or I Soxazoles and Their Use as Sip Receptor Ligands” (priority 2005, published 2008)
